Results: PMC11604427 (Frontiers in Pharmacology, 2024)

Key:
[1] = target: T1, Human recombinant PKMYT1 enzyme (Homo sapiens, UniProt Q99640); test: ADP-GLO enzyme inhibition assay; type: biochemical; settings: ADP-GLO method
T1 construct: purchased Abcam
T1 sequence (Q99640 1-499): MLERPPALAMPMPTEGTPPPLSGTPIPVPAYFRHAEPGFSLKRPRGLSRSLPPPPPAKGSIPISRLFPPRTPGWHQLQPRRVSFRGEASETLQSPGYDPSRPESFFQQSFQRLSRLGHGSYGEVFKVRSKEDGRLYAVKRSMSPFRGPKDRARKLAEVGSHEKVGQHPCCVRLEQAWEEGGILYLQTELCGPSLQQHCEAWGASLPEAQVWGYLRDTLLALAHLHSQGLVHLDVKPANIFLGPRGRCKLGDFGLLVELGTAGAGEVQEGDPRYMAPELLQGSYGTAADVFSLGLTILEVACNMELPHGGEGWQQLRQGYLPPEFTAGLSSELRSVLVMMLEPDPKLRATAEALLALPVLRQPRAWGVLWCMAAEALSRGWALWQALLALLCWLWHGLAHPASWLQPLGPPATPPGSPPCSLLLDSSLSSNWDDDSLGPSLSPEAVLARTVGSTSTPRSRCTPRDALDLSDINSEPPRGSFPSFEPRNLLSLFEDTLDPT
Description: The ADP-GLO™ kinase assay kit, purchased from Promega Corporation (Madison, WI, United States), included the ADP-GLO reagent, the kinase assay reagent, and ultra-pure ATP and ADP. PKMYT1 enzyme was dissolved in 5 μL of freshly prepared enzyme assay buffer containing 70 mM Hepes, 3 mM MgCl2, 3 mM MnCl2, 50 μg/mL PEG20000, 3 μM sodium orthovanadate, 1.2 mM dithiothreitol, and then injected into 384-well plates. […] The enzymatic reaction was initiated by adding 5 μL of ATP, followed by a 60-min incubation at 30°C. Subsequently, 15 μL of ADP-GLO reagent was added, and the incubation was continued for an additional 40 min at room temperature. Then, 30 μL of kinase detection reagent was introduced, and the samples were incubated for a final 30 min. Luminescence measurements were taken using an Envision plate reader (PerkinElmer). The IC50 value of each tested compound was calculated by GraphPad Prism software.

[2] = target: T2, Human recombinant HDAC2 enzyme (Homo sapiens, UniProt Q92769); test: HDAC2 fluorescence enzyme inhibition assay (Boc-Lys(acetyl)-AMC); type: biochemical; settings: fluorescence signal-based method
T2 construct: purchased Abcam
T2 sequence (Q92769 whole entry): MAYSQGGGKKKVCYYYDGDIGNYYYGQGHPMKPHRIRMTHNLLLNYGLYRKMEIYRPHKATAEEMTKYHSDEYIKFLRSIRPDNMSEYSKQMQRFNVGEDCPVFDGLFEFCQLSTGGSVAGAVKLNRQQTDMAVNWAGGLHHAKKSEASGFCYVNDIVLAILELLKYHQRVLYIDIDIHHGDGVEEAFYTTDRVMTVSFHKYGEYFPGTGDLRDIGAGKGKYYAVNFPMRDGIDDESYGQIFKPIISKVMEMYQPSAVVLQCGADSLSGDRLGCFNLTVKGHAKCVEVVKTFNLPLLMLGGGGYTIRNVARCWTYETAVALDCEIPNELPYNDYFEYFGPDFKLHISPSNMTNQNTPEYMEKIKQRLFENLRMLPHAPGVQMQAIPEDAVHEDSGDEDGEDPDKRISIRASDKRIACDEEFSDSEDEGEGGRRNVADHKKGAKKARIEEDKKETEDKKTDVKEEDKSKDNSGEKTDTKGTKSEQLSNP
Description: Firstly, a 96-well plate was loaded with a blend comprising 10 μL of HDAC2 enzyme solution and 50 μL of the test compounds at assorted concentrations, followed by incubation at a temperature of 37°C for a duration of 5 min. Subsequently, 10 μL of the fluorescent substrate Boc-Lys (acetyl)-AMC was added and continued for 30 min. Finally, 100 μL of developer containing trypsin and TSA was injected into each well and incubated for 20 min.

Row | IC50 [1] [nM] | IC50 [2] [nM] | PKMYT1 (IC50, nM) [1] | SMILES
1 | 9.26 ± 1.07 | 5.47 ± 0.66 | – | C=CCc1nc2c(cc1CCCCCC(=O)NO)c(C(N)=O)c(N)n2-c1c(C)ccc(O)c1C [PKHD-3]
2 | 7.78 ± 0.91 | 4.14 ± 0.52 | – | CCc1nc2c(cc1CCCCCC(=O)NO)c(C(N)=O)c(N)n2-c1c(C)ccc(O)c1C [PKHD-2]
3 | 11.1 ± 1.86 | 8.64 ± 1.35 | – | Cc1ccc(O)c(C)c1-n1c(N)c(C(N)=O)c2cc(CCCCCC(=O)NO)c(CCCO)nc21 [PKHD-1]
4 | – | – | no inhibition | O=C(CCCCCCC(=O)Nc1ccccc1)NO [SAHA, Vorinostat, reference compound]
5 | 13.6 ± 1.94 | 7.31 ± 1.12 | – | CCCCc1nc2c(cc1CCCCCC(=O)NO)c(C(N)=O)c(N)n2-c1c(C)ccc(O)c1C [PKHD-4]
